Test system: C57BL/6 mice
Experiment: animal or person
Type: in vivo
Conditions: Mus musculus, sc, 0.5 h, s.c. administration, 30 min, 55° C. water, read-out: ED50 (mg/kg) at 30 min on C57BL/6 mice in Warm-water Tail-flick Test

COc1ccc(C2(/C=C/c3ccccc3)CCN(Cc3ccc(NC(C)=O)cc3)CC2)nc1 [Compound 62, (E)-N-(4-((4-(5-methoxypyridin-2-yl)-4-styrylpiperidin-1-yl)methyl)phenyl)acetamide]
ED50: > 10 mg/kg

COc1ccc(C2(/C=C\c3ccccc3)CCN(Cc3ccc(NC(C)=O)cc3)CC2)nc1 [Compound 63, (Z)-N-(4-((4-(5-methoxypyridin-2-yl)-4-styrylpiperidin-1-yl)methyl)phenyl)acetamide]
ED50: > 10 mg/kg

CS(=O)(=O)N(c1ccc(CN2CCC(CCc3ccccc3)(c3ccccn3)CC2)cc1)S(C)(=O)=O [Compound 64, N-(methylsulfonyl)-N-(4-((4-phenethyl-4-(pyridin-2-yl)piperidin-1-yl)methyl)phenyl)methane-sulfonamide]
ED50: > 10 mg/kg

CNC(=O)C1(CCc2ccccc2)CCN(Cc2ccc(NC(C)=O)cc2)CC1 [Compound 65]
ED50: > 10 mg/kg

CC(=O)Nc1ccc(CN2CCC(CCc3ccccc3)(C(=O)N(C)C)CC2)cc1 [Compound 66, 1-(4-acetamidobenzyl)-N,N-dimethyl-4-phenethylpiperidine-4-carboxamide]
ED50: > 10 mg/kg

CC(=O)NCC1(CCc2ccccc2)CCN(Cc2ccc(NC(C)=O)cc2)CC1 [Compound 67, N-((1-(4-acetamidobenzyl)-4-phenethylpiperidin-4-yl)methyl)acetamide]
ED50: > 10 mg/kg

CC(=O)Nc1ccc(CN2CCC(CO)(CCc3ccccc3)CC2)cc1 [Compound 68, N-(4-((4-(hydroxymethyl)-4-phenethylpiperidin-1-yl)methyl)phenyl)acetamide]
ED50: > 10 mg/kg

CC(=O)Nc1ccc(CN2CCC(CCc3ccccc3)(C3CCCO3)CC2)cc1 (centres unmarked) [Compound 69, N-(4-((4-phenethyl-4-(tetrahydrofuran-2-yl)piperidin-1-yl)methyl)phenyl)acetamide]
ED50: < 10 mg/kg

CC(=O)Nc1ccc(CN2CCC(CCc3ccccc3)(C3CCCCO3)CC2)cc1 (centres unmarked) [Compound 70, N-(4-((4-phenethyl-4-(tetrahydro-2H-pyran-2-yl)piperidin-1-yl)methyl)phenyl)acetamide]
ED50: > 10 mg/kg

CC(=O)Nc1ccc(CN2CCCC(/C=C/c3ccccc3)(c3ccccn3)C2)cc1 (centres unmarked) [Compound 71, (E)-N-(4-((3-(pyridin-2-yl)-3-styrylpiperidin-1-yl)methyl)phenyl)acetamide]
ED50: > 10 mg/kg

COCC1(CCc2ccccc2)CCN(Cc2ccc(NC(C)=O)cc2)CC1 [Compound 72, N-(4-((4-(methoxymethyl)-4-phenethylpiperidin-1-yl)methyl)phenyl)acetamide]
ED50: > 10 mg/kg

CC(=O)Nc1ccc(CN2CCC(CCc3ccccc3)(C3CC=CCO3)CC2)cc1 (centres unmarked) [Compound 73, N-(4-((4-(3,6-dihydro-2H-pyran-2-yl)-4-phenethylpiperidin-1-yl)methyl)phenyl)acetamide]
ED50: > 10 mg/kg

CC(=O)Nc1ccc(CN2CCC(CCc3ccccc3)(C3C=CCO3)CC2)cc1 (centres unmarked) [Compound 74, N-(4-((4-(2,5-dihydrofuian-2-yl)-4-phenethylpiperidin-1-yl)methyl)phenyl)acetamide]
ED50: < 10 mg/kg

COC1(CCc2ccccc2)CCN(Cc2ccc(NC(C)=O)cc2)CC1 [Compound 75, N-(4-((4-methoxy-4-phenethylpiperidin-1-yl)methyl)phenyl)acetamide]
ED50: > 10 mg/kg

COCCC1(CCc2ccccc2)CCN(Cc2ccc(NC(C)=O)cc2)CC1.Cl [Compound 76, N-(4-((4-(2-methoxyethyl)-4-phenethylpiperidin-1-yl)methyl)phenyl)acetamide HCl]
ED50: > 10 mg/kg

CCOC(=O)NCC1(CCc2ccccc2)CCN(Cc2ccc(NC(C)=O)cc2)CC1 [Compound 77, ethyl (1-(4-acetamidobenzyl)-4-phenethylpiperidin-4-yl)methylcarbamate]
ED50: > 10 mg/kg

CCOCC1(CCc2ccccc2)CCN(Cc2ccccc2)CC1 [Compound 78, 1-benzyl-4-(ethoxymethyl)-4-phenethylpiperidine]
ED50: > 10 mg/kg

CCOCC1(CCc2ccccc2)CCN(C)CC1 [Compound 79, 4-(ethoxymethyl)-1-methyl-4-phenethylpiperidine]
ED50: > 10 mg/kg

C=CCN1CCC(CCc2ccccc2)(COCC)CC1 [Compound 80, 1-allyl-4-(ethoxymethyl)-4-phenethylpiperidine]
ED50: > 10 mg/kg

CCOCC1(CCc2ccccc2)CCN(Cc2ccc(NC(=O)CC)cc2)CC1 [Compound 81, N-(4-((4-(ethoxymethyl)-4-phenethylpiperidin-1-yl)methyl)phenyl)pro-pionamide]
ED50: > 10 mg/kg

CCCCC(=O)Nc1ccc(CN2CCC(CCc3ccccc3)(COCC)CC2)cc1 [Compound 82, N-(4-((4-(ethoxymethyl)-4-phenethylpiperidin-1-yl)methyl)phenyl)pen-tanamide]
ED50: > 10 mg/kg

CCOCC1(CCc2ccccc2)CCN(Cc2ccc(NC(N)=O)cc2)CC1 [Compound 83, 1-(4-((4-(ethoxymethyl)-4-phenethylpiperidin-1-yl)methyl)phenyl)urea]
ED50: > 10 mg/kg

CCOCC1(CCc2ccccc2)CCN(Cc2ccc(NC(C)=O)c(F)c2)CC1 [Compound 84, N-(4-((4-(ethoxymethyl)-4-phenethylpiperidin-1-yl)methyl)-2-fluorophenyl)acetamide]
ED50: > 10 mg/kg

CCOCC1(CCc2ccccc2)CCN(Cc2ccc(NC(C)=O)cc2F)CC1 [Compound 85, N-(4-((4-(ethoxymethyl)-4-phenethylpiperidin-1-yl)methyl)-3-fluorophenyl)acetamide]
ED50: > 10 mg/kg

CCOCC1(CCc2ccccc2)CCN(Cc2ccc(NC(C)=O)s2)CC1.Cl [Compound 86, N-(5-((4-(ethoxymethyl)-4-phenethylpiperidin-1-yl)methyl)thiophen-2-yl)acetamide HCl]
ED50: > 10 mg/kg

CCOCC1(CCc2ccccc2)CCN(Cc2cnc(NC(C)=O)s2)CC1 [Compound 87, N-(5-((4-(ethoxymethyl)-4-phenethylpiperidin-1-yl)methyl)thiazol-2-yl)acetamide]
ED50: > 10 mg/kg

CCOCC1(CCc2ccccc2)CCN(Cc2ccc(NCC(F)(F)F)cc2)CC1 [Compound 88, 4-((4-(ethoxymethyl)-4-phenethylpiperidin-1-yl)methyl)-N-(2,2,2-trifluoroethyl)aniline]
ED50: > 10 mg/kg

CCOCC1(CCc2ccccc2)CCN(Cc2ccc(C(N)=O)cc2)CC1 [Compound 89, 4-((4-(ethoxymethyl)-4-phenethylpiperidin-1-yl)methyl)benzamide]
ED50: > 10 mg/kg

CCOCC1(CCc2ccccc2)CCN(Cc2ccc(C(=O)NC)cc2)CC1 [Compound 90, 4-((4-(ethoxymethyl)-4-phenethylpiperidin-1-yl)methyl)-N-methylbenzamide]
ED50: > 10 mg/kg

CC(=O)Nc1ccc(CN2CCC(CCc3ccccc3)(C3CCO3)CC2)cc1 (centres unmarked) [Compound 91, N-(4-((4-(oxetan-2-yl)-4-phenethylpiperidin-1-yl)methyl)phenyl)acetamide]
ED50: < 10 mg/kg

CCOCC1(CCc2ccccc2)CCN(Cc2ccc(NC(C)=O)cn2)CC1 [Compound 92, N-(6-((4-(ethoxymethyl)-4-phenethylpiperidin-1-yl)methyl)pyridin-3-yl)acetamide]
ED50: > 10 mg/kg

CCCOCC1(CCc2ccccc2)CCN(Cc2ccc(NC(C)=O)cc2)CC1 [Compound 93, N-(4-((4-phenethyl-4-(propoxy-methyl)piperidin-1-yl)methyl)phenyl)acetamide]
ED50: > 10 mg/kg

CC(=O)Nc1ccc(CN2CCC(CCc3ccccc3)(C3CO3)CC2)cc1 (centres unmarked) [Compound 94, N-(4-((4-(oxiran-2-yl)-4-phenethylpiperidin-1-yl)methyl)phenyl)acetamide]
ED50: > 10 mg/kg

CCOCC1(CCc2ccccc2)CCN(Cc2ccc(NC(=O)C(C)C)cc2)CC1 [Compound 95, N-(4-((4-(ethoxymethyl)-4-phenethylpiperidin-1-yl)methyl)phenyl)iso-butyramide]
ED50: > 10 mg/kg

CCOCC1(CCc2ccccc2)CCN(Cc2ccc(NC(C)=O)cc2)C1 (centres unmarked) [Compound 96, N-(4-((3-(ethoxymethyl)-3-phenethylpyrrolidin-1-yl)methyl)phenyl)acetamide]
ED50: < 10 mg/kg

CCOCC1(CCc2ccccc2)CN(Cc2ccc(NC(C)=O)cc2)C1.Cl [Compound 97, N-(4-((3-(ethoxymethyl)-3-phenethylazetidin-1-yl)methyl)phenyl)acetamide HCl]
ED50: > 10 mg/kg

CCOCC1(CCc2ccccc2)CCCN(Cc2ccc(NC(C)=O)cc2)CC1 (centres unmarked) [Compound 98, N-(4-((4-(ethoxymethyl)-4-phenethylazepan-1-yl)methyl)phenyl)acetamide]
ED50: > 10 mg/kg

CCOCC1(CCc2ccccc2)CN(CCc2ccc(NC(C)=O)cc2)C1 [Compound 99, N-(4-(2-(3-(ethoxymethyl)-3-phenethylazetidin-1-yl)ethyl)phenyl)acetamide]
ED50: > 10 mg/kg

C=CCCC1(COCC)CCN(Cc2ccc(NC(C)=O)cc2)CC1 [Compound 100, N-(4-((4-(but-3-enyl)-4-(ethoxymethyl)piperidin-1-yl)methyl)phenyl)acetamide]
ED50: > 10 mg/kg

CCOCC1(CCC2CC2)CCN(Cc2ccc(NC(C)=O)cc2)CC1 [Compound 101, N-(4-((4-(2-cyclopropylethyl)-4-(ethoxymethyl)piperidin-1-yl)methyl)phenyl)acetamide]
ED50: > 10 mg/kg

CCOCC1(CCc2cccs2)CCN(Cc2ccc(NC(C)=O)cc2)CC1.Cl [Compound 102, N-(4-((4-(ethoxymethyl)-4-(2-(thiophen-2-yl)ethyl)piperidin-1-yl)methyl)phenyl)acetamide HCl]
ED50: < 10 mg/kg

CCOCC1(CCc2nccs2)CCN(Cc2ccc(NC(C)=O)cc2)CC1.Cl [Compound 103, N-(4-((4-(ethoxymethyl)-4-(2-(thiazol-2-yl)ethyl)piperidin-1-yl)methyl)phenyl)acetamide HCl]
ED50: > 10 mg/kg

CCOCC1(CCc2ccc(F)cc2)CCN(Cc2ccc(NC(C)=O)cc2)CC1 [Compound 104, N-(4-((4-(ethoxymethyl)-4-(4-fluoro-phenethyl)piperidin-1-yl)methyl)phenyl)acetamide]
ED50: > 10 mg/kg

CCOCC1(CCc2ccc(O)cc2)CCN(Cc2ccc(NC(C)=O)cc2)CC1.Cl [Compound 105, N-(4-((4-(ethoxymethyl)-4-(4-hydroxy-phenethyl)piperidin-1-yl)methyl)phenyl)acetamide HCl]
ED50: > 10 mg/kg

Reference: patent publication US11584765B2 (priority 2017, dated 2023)
